Values quoted from earlier work, collected in publication PMC6260473 (Saudi Pharmaceutical Journal : SPJ, 2018).

Tested on: human colorectal adenocarcinoma cell lined HT29
Conditions: read-out: IC50, cytotoxic effect, ref Nowak et al., 2014

With `COc1ccc(Cn2cnc3c(cc(N4CCOCC4)c4ccccc43)c2=O)cc1` [3-(4-methoxybenzyl)-6-(morpholin-4-yl)benzo[h]quinazolin-4(3H)-one] as the compound, how does the IC50 read?
Its IC50 is 4.12 µM.

Which IC50 does the source give for `N.N.[Cl][Pt][Cl]` [cisplatin] here?
The IC50 was 8.47 µM.
